The results in this text go back to patent US20130331381A1, “Treatment of Cancer WIth Dopamine Receptor Antagonists” (McMaster University, priority 2011, published 2013).

The structures appear in SMILES notation. Structures can show the parent of a compound that is named as a salt. Where two headings read alike, the source gives them in different places.

For series [1], the system named is HL-60, MV4-11 and OCI-AML3. The series can be described thus: Cytotoxicity to leukemic cell lines (normalized cell number, 72 h). Format: cell-based, human. The conditions noted are these: for normalized cell number / toxicity: 10 μM. How it is done:
(§1) All three lines are leukemic cell lines. HL-60 was derived from promyelocytic AML whereas MV 4-11 and OCI-AML3 are representative of AML. Each compound was incubated with the cells for 72 h. The control was DMSO (ie the vehicle used for the compound) for 72 h. Each condition had three replicates.
The dopamine receptor antagonist and phenothiazine-related compound chlorpromazine was also investigated for effects on the AML cell lines HL-60, MV4-11 and OCI-AML3. Testing was performed as set out in Example 1.

Series [2] deals with HL-60, OCI-AML2 and OCI-AML3. The series can be described thus: Cytotoxicity of DR agonists and antagonists against AML cell lines. Format: cell-based, human. The conditions noted are these: CLOZ at higher concentrations; FIG. 6. How it is done:
as §1
A series of dopamine receptor agonists, D3-antagonists, DR1 & 5-antagonists and multi-receptor antagonists were tested for cytotoxicity against three AML cell lines HL-60, OCI-AML2 and OCI-AML3. Testing was performed as set out in Example 1.

In another series the test system is primary AML cells. The series can be described thus: Methylcellulose blast-CFU assay, primary AML cells. Format: cell-based, human. The settings on record: for AML-blast CFU potential: salinomycin at 1 μM and 10 μM, 24 h treatment, 5 AML patient samples.
Series [3] has as its system CD14+ cells in primary AML. Put plainly: Frequency of CD14+ cells in primary AML by flow cytometry. Format: cell-based, human. The conditions noted are these: 10 μM, 72 h; control 100%.
Another series has as its system v1H9-Oct4-GFP cells. The series can be described thus: Chemical screen for differentiation of neoplastic hPSC (GFP and Hoechst). The settings on record: Homo sapiens; for activity at 10 µM: 72 h, read-out: Hoechst % RA (residual activity). Format: cell-based. How it is done:
Chemical screens involved v1H9-Oct4-GFP cells seeded at 5,000 cells per well in mouse embryonic fibroblast conditioned media (MEFCM) supplemented with 8 ng/ml bFGF. 24 hours later the media was exchanged for MEFCM with compounds at 10 μM and 0.1% DMSO, 0.1% DMSO (−BMP4) or 100 ng/ml of BMP4 and 0.1% DMSO (+BMP4) for 48 hours before being exchanged with fresh media with compound for a further 24 h (total compound treatment time 72 h) prior to being fixed and prepared for automated imaging and plate reader analysis. Confluent H9 & fibroblast-derived iPSC were seeded at 10,000 cells per well in MEFCM supplemented with 8 ng/ml bFGF. 24 hours later the cells were treated with compounds at 10 μM and 0.1% DMSO, 0.1% DMSO (−BMP4) or 100 ng/ml of BMP4 and 0.1% DMSO (+BMP4). Fresh MEFCM supplemented with compounds was exchanged daily for 5 days. On day 5, hPSC's were fixed and prepared for automated imaging and plate reader analysis. See supplementary experimental procedures for further details.
Cells were fixed in 2% paraformaldehyde and stained with 10 μg/mL Hoechst 33342 (Invitrogen) with a Combi Multidrop Dispenser (Thermo). For experiments that involved Oct4 immunocytochemistry, a monoclonal antibody for Oct4 (BD) was used along with an Alexa-Fluor-647 secondary (Invitrogen). Immunocytochemical staining was performed by a Janus automated liquid handler (Perkin Elmer). Images were acquired at 10×N.A with an Arrayscan HCS VTI Reader (Cellomics) by means of epi-fluorescence illumination and standard filter sets.
Image analysis was performed using custom scripts in Acapella software (Perkin Elmer). Nuclear objects were segmented from the Hoechst signal. For neoplastic cell lines, object intensity analysis was performed on GFP positive cells only. For normal cell lines, the fraction of Alexa-Fluor-647-positive cells was quantified. Images and well-level data were stored and analysed in a Columbus Database (Perkin Elmer) and further data analysis, compounds registration and hit identification in ActivityBase (IDBS).
These Collections have been previously scrutinized in numerous other mammalian cell lines (Diallo et al., 2010; Shoemaker, 2006).

The test system of series [4] is neoplastic hPSCs (v1H9-Oct4-GFP). The series can be described thus: Flow cytometry of Oct4 in neoplastic hPSCs. Format: cell-based, human. The conditions noted are these: FIG. 10b.
Another series has as its system neoplastic hPSCs. Put plainly: TaqMan Low-Density Array-qPCR of differentiation genes. Format: cell-based, human. The settings on record: thioridazine-treated neoplastic hPSCs.
The subject of a further series is patient AML cells. The series can be described thus: CD11b granulocytic maturation in patient AML cells. Format: cell-based, human. The settings on record: 10 μM, up to 96 hours.
A further series has as its system AML LSCs. Put plainly: Xenotransplantation of compound-treated AML cells. The settings on record: AML cells treated at 10 μM, NSG mice. Format: in vivo, human. How it is done: NOD.Cg-Prkdc^scid II2rg^tm1Wjl/SzJ adult mice (NSG) were sub-lethally irradiated with 315 rads 24 hours prior transplantation. 0.8−1.0×10^7 AML MNCs or 1.5−1.8×10^5 CB lin− hematopoietic cells treated with compound or DMSO-vehicle for 24 h were injected via tail vein (IV). After 6-10 weeks, animals were culled, and the BM and spleen were analyzed for the presence of human cells by flow cytometry (LSRII, BD) and data was analyzed using FlowJo software (Tree Star Inc). For secondary HSPC transplants, equal number of engrafted human cells from CB lin− transplants were injected IV in adult irradiated NSG mice as described for primary transplants.

In another series the test system is AML-OCI2 and AML-OCI3. Put plainly: Volumetric cell counting of AML cell lines. Format: cell-based, human. The conditions noted are these: 72 h, serum-free conditions. How it is done:
The number of AML-OCI2 and AML-OCI3 cells present after 72 h treatment with DR antagonists (FIG. 16b) and agonist (FIG. 16c-d) were counted by measuring the number of events within a fixed volume following the grating strategy defined by forward scatter and side scatter clustering, 7AAD− and Hoechst+.
(§2) Due to the bioavailability of dopamine in fetal bovine serum (FBS) (Little et al., 2002), serum-free conditions were employed to assess the role of DRs in AML. […] DR D2-family and D1-family exert opposing actions on intracellular signaling leading to differential biological effects (Self et al., 1996).

The test system of series [5] is patient AML samples, DR+ and DR- subfractions. The series can be described thus: Blast-CFU content of DR+ and DR- sorted patient AML samples. Format: cell-based, human. The settings on record: 24 h treatment.
Text: as §2

Series [6] concerns normal HSCs and progenitors (CB lin-).
Experimental: (§3) Normal HSCs and progenitors were sourced from either mobilized peripheral blood or umbilical cord blood of health patients. Primary AML cells were taken from patients diagnosed with AML. Both normal HSCs and primary AML cells were cultured under standard in vitro methocellulose assay conditions (see http://www.stemcell.com/en/Products/All-Products/MethoCult-H4434-Classic.aspx as well as Clinton Campbell et al. The human stem cell hierarchy is defined by a functional dependence on Mcl-1 for self-renewal capacity. Blood 116 (9) 1433-1442 (Jun. 4, 2010), hereby incorporated by reference) for at least 14 days before the number of colonies were recorded.
(§4) AML patient blasts were cultured in IMDM supplemented with 5% heated inactivated FBS (HyClone), 5 ng/mL IL3 (R&D systems), 5×10^−5 M β-mercaptoethanol (Sigma) and BIT (StemCell Technologies). HSC media contained IMDM supplemented with 1% BSA (Sigma), 100 ng/mL SCF (R&D systems), 100 ng/mL Flt-3L (R&D systems) and 20 ng/mL TPO (R&D systems). Patient HSPC and AML samples were treated with compound or DMSO-vehicle (0.1%) for 24 h prior to CFU plating or xenotransplantation studies.
(§5) AML patient or CB lin− cells were cultured 24 hours in the presence of compound or DMSO-vehicle (0.1%) control. AML cells were plated at 50 000 cells/mL in Methocult GF H4434 (Stem Cell Technologies). CB lin− cells were plated at 1000 cells/mL in Methocult GF H4434 (Stem Cell Technologies). Colonies were scored after 14 days of culture using standard morphological criteria.
For series [7] the test system is unchanged. Put plainly: Methylcellulose colony forming assay, normal HSCs / HSPCs. The conditions noted are these: 10 μM, at least 14 days; DMSO control about 100.
Experimental: as §3, §4, §5

Experimental for primary AML cells: as §3, §4, §5

`CSc1ccc2c(c1)N(CCC1CCCCN1C)c1ccccc1S2` (racemic) [thioridazine, 10-{2-[(RS)-1-Methylpiperidin-2-yl]ethyl}-2-methylsulfanylphenothiazine]: the normalized cell number result in series [1] (0.1 μM and 1 μM) is “little effect”. Further, in series [1], the “normalized cell number / toxicity” value is reported as “almost zero”. For the same compound, the “cytotoxicity of AML cell lines” value in series [2] is on record as “significant effect”. Moreover, in the series with primary AML cells (10 μM, at least 14 days, control about 22), the “number of CFU colonies, AML cells” value came out at 1.6 blast colonies. In addition, the “AML-blast CFU potential” value in the series on primary AML cells was “reduced”. The “normalized frequency of CD14+ cells” value in [3] was determined as 20%. In the series on v1H9-Oct4-GFP cells (10 μM), the activity at 10 µM was above 30%. In addition, in series [4], the “cell number, neoplastic hPSCs” value is “reductions” and the “levels of Oct4 in neoplastic hPSCs” value is “reductions”. For the same compound, in the series with neoplastic hPSCs, the upregulated differentiation-associated genes is 21 of 50. Moreover, the “frequency of CD11b granulocytic AML-blast cells” value with patient AML cells was “marked increase”. Besides, the “AML LSC capacity (CD45+ CD33+ blast engraftment)” value in the series with AML LSCs is reported as “significantly reduce”. Further, in the series on AML-OCI2 and AML-OCI3, the “number of AML cells” value was “reduced”. In [5], the “blast-CFU generation, DR+ subfraction” value is given as “reduction” and the “blast-CFU generation, DR- subfraction” value is on record as “no reduction”. For the same compound, in [6], the “HSPC CFU potential” value is recorded as “little effect”. Besides, the “colony forming potential of normal HSCs, total colonies” value in [7] is on record as “about 66 total colonies”.

Consider `Br.CCCN(CCC)[C@@H]1CCc2ccc(O)cc2C1` [70H-DPAT, R(+)-7-Hydroxy-DPAT hydrobromide], for which the “number of AML cells” value in the series on AML-OCI2 and AML-OCI3 is “increased”.

Regarding `Oc1cc2c(cc1O)[C@@H](c1ccccc1)CNCC2` [SKF38393, (R)-(+)-SKF-38393 hydrochloride], the “number of AML cells” value in the series with AML-OCI2 and AML-OCI3 is “significant reduction”.

Turning to `Cn1cnc([N+](=O)[O-])c1Sc1ncnc2nc[nH]c12` [azathioprine], the activity at 10 µM with v1H9-Oct4-GFP cells (10 μM) was above 30%.

Take `CN(C)CCCN1c2ccccc2Sc2ccc(Cl)cc21` [chlorpromazine, Chlorpromazine hydrochloride]: in series [1], the “normalized cell number / toxicity” value is given as “toxic”. For the same compound, the “cytotoxicity of AML cell lines” value in series [2] is “significant effect”. Also, the “number of AML cells” value in the series with AML-OCI2 and AML-OCI3 is on record as “reduced”.

Regarding `CN1CCN(C2=Nc3cc(Cl)ccc3Nc3ccccc32)CC1` [clozapine, Clozapine], the “cytotoxicity of AML cell lines” value in series [2] is given as “significant effect”.

For `CNC1CC(c2ccc(Cl)c(Cl)c2)c2ccccc21` (stereo not shown) [indatraline], in the series on v1H9-Oct4-GFP cells, the activity at 10 µM is above 30%.

Take `OC(c1cc(C(F)(F)F)nc2c(C(F)(F)F)cccc12)C1CCCCN1` (stereo not shown) [mefloquine]: the “AML-blast CFU potential” value with primary AML cells is “reduced”. Besides, in the series with v1H9-Oct4-GFP cells (10 μM), the activity at 10 µM is above 30%. The EC50 in the series with v1H9-Oct4-GFP cells (dose response, FIG. 9g, read-out: EC50, reduction in GFP intensity) was below 10 µM. Further, in series [4], the “cell number, neoplastic hPSCs” value is “reductions” and the “levels of Oct4 in neoplastic hPSCs” value was “reductions”. For the same compound, the “AML LSC capacity (CD45+ CD33+ blast engraftment)” value in the series with AML LSCs is given as “ineffective”. Moreover, the “HSPC CFU potential” value in series [6] is recorded as “little effect”.

Turning to `CC[C@@H](C(=O)[C@@H](C)[C@@H](O)[C@H](C)[C@@H]1O[C@@H]([C@@H](CC)C(=O)O)CC[C@@H]1C)[C@H]1O[C@]2(C=C[C@@H](O)[C@]3(CC[C@@](C)([C@H]4CC[C@](O)(CC)[C@H](C)O4)O3)O2)[C@H](C)C[C@@H]1C` [salinomycin], the “AML-blast CFU potential” value with primary AML cells is reported as “reduced”. In addition, the “HSPC CFU potential” value in [6] was “reduced”.
